# Measured values published in US9012497B2, “Cyclohexyl carbamate compounds as active anti-cellulite ingredients” (Symrise AG, priority 2010, dated 2015).
# pEC50, pIC50: −log10 of the molar value.
# Legend:
# lipoprotein lipase (LPL) = biological target: T1, lipoprotein lipase (LPL) (Mus musculus, UniProt P11152); experiment: Inhibition of LPL (lipogenesis assay), MUF oleate hydrolysis; assay type: biochemical; settings: LPL obtained from differentiated 3T3-L1 cells; mean values of at least 2 independent tests
# T1 construct: endogenous in cells; host or cells: differentiated 3T3-L1 cells (mouse); heparin-released supernatant
# T1 sequence (P11152 28-474): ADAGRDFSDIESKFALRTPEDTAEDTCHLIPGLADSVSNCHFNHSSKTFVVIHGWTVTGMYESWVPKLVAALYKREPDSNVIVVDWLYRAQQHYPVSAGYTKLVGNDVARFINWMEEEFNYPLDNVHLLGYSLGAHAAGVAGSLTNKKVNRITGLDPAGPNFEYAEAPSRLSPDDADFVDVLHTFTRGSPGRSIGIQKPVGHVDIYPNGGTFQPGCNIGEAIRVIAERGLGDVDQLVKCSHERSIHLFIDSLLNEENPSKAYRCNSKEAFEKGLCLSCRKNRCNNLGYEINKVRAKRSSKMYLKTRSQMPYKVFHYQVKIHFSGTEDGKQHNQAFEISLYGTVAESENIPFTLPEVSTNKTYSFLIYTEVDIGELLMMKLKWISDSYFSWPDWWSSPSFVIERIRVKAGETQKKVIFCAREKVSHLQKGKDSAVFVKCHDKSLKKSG
# Description: (§1) Lipogenesis is perceived as the storage of triglycerides in adipocytes. The inhibition of this storage can take place by means of the inhibition of the activity of extracellular lipoprotein lipase (LPL) in that the hydrolysis of extracellular triglycerides and therefore the absorption of free fatty acids by adipocytes are reduced. As a preliminary test, the inhibition of pancreatic lipase (PL) is investigated.
# The results of the inhibition of the PL are used as a preliminary test and are confirmed on LPL. To obtain LPL, 3T3-L1 cells (mouse embryonic fibroblast-like adipocyte cell line) are seeded in a 6-well plate with collagen I-coating in a concentration of 3×10^5 cells/well. The cultivation and differentiation of the cells takes place analogously to the details in Example 2 (adipogenesis assay). During the differentiation LPL is increasingly expressed. The LPL is present in a membrane-bound state and is released by one hour incubation with heparin solution at 2-8° C. to the supernatant of the cells.
# The LPL thus obtained, in the presence of test substances in different use concentrations, has methylumbelliferyl oleate (MUF oleate) added as the substrate. Fluorescent methylumbelliferyl (MUF) is produced by hydrolysis of the MUF oleate by LPL and is quantified. The inhibition of the hydrolysis of the MUF oleate is a measure of the inhibition of the activity of the LPL and therefore the lipogenesis.
# [formula] wherein MUF test substance=MUF concentration of the wells with test substance and with LPL MUF control=MUF concentration of the wells without test substance, but with LPL MUF control without LPL=MUF concentration of the wells without test substance and without LPL
# The IC50 is calculated from the inhibition of the LPL [%] in a series of dilutions of tested samples. This is the concentration at which the activity of the LPL and therefore the lipogenesis is 50% inhibited.
# 3T3 cells = experiment: ATP assay, inhibition of proliferation; assay type: cell-based; settings: Mus musculus, NIH3T3, 48 h, non-cytotoxic dilutions, mean values of at least 2 independent tests
# Description: 3T3 cells (mouse […] fibroblasts) were seeded in 96-well plates. After 24 h cultivation at 37° C. and 5% CO2 in DMEM (Dulbecco's Modified Eagle Medium), cells were treated with test substances for another 48 h. […] ATP content in the cells is measured by
# The inhibition of proliferation was calculated by:
# [formula] wherein RLU test substance=relative luminescent units of the wells with test substance and with cells RLU control=relative luminescent units of the wells without test substance, but with cells RLU control without cells=relative luminescent units of the wells without test substance and without cells
# The IC50 is calculated from the proliferation inhibition [%] in a series of non-cytotoxic dilutions of tested samples. This is the concentration at which the proliferation is 50% inhibited.
# 3T3-L1 cells [1] = experiment: Lipolysis assay, in vitro on 3T3-L1 cells, free glycerol release; assay type: cell-based; settings: Mus musculus; differentiated 3T3-L1 cells, about 20 hours of incubation; mean values from at least 2 independent tests; read-out: Stimulation of lipolysis EC50
# Description: 3T3-L1 cells (mouse embryonic fibroblast-like adipocyte cell line) are seeded in a 48-well plate with collagen I-coating in a concentration of 3×10^4 cells/well. The cultivation and differentiation of the cells takes place analogously to the details in Example 2 (adipogenesis assay).
# Various concentrations of the test substances are applied to the cells in DMEM, with bovine serum albumen added. After about 20 hours of incubation, the quantification of free glycerol in the supernatant of the cells takes place, which is released by the cells after hydrolysis of triglycerides in the cells and is a measure of the lipolysis of the cells. The quantification of the free glycerol is carried out based on an enzymatic method with a free glycerol reagent.
# (§2) The stimulation of the lipolysis in the presence of test substances is calculated according to the following equation:
# [formula] wherein A test substance=absorption of the wells with test substance and with cells A test substance without cells=absorption of the wells with test substance without cells (absorption control) A control=absorption of the wells without test substance, but with cells A control without cells=absorption of the wells without test substance and without cells
# The EC50 is calculated from the lipolysis stimulation [%] in a series of dilutions of tested samples. This is the concentration at which the lipolysis is 50% stimulated.
# 3T3-L1 cells [2] = experiment: Adipogenesis assay (in vitro), Nile Red lipid staining; assay type: cell-based; settings: Mus musculus, mean values of at least 2 independent tests, read-out: Adipogenesis inhibition IC50
# Description: 3T3-L1 cells (mouse embryonic fibroblast-like adipocyte cell line) are seeded in a 48-well plate with collagen I-coating in a concentration of 3×10^4 cells/well. After 72 h cultivation at 37° C. and 5% CO2 in DMEM (Dulbecco's Modified Eagle Medium), enriched with 10% calf serum, various concentrations of the test substances in DMEM, enriched with 10% foetal calf serum and to which are added 1 μg/ml insulin, 0.25 μM dexamethasone and 0.5 mM IBMX (3-isobutyl-1-methylxanthine), are added and incubated for a further 48 h. A media change takes place, in that DMEM, enriched with 10% foetal calf serum and with 1 μg/ml insulin added, are applied. After renewed cultivation for 48 h, a further media change takes place, in which DMEM, enriched with 10% foetal calf serum, is applied.
# After a further incubation for 72 h, the intracellularly stored lipids are quantified as a measure for the differentiation of the cells by measuring the fluorescence after staining of the lipids with the fluorescent dye Nile Red.
# The inhibition of the adipogenesis in the presence of the test substances is calculated according to the following equation:
# [formula] wherein RFU test substance=relative fluorescent units of the wells with test substance and with cells RFU control=relative fluorescent units of the wells without test substance, but with cells RFU control without cells=relative fluorescent units of the wells without test substance and without cells The IC50 is calculated from the adipogenesis inhibition [%] in a series of dilutions of tested samples. This is the concentration at which the adipogenesis is 50% inhibited.
# pancreatic lipase (PL) = biological target: T2, pancreatic lipase (PL) (Sus scrofa, UniProt P00591); experiment: Inhibition of PL, MUF oleate hydrolysis; assay type: biochemical; settings: mean values of at least 2 independent tests
# T2 construct: purchased Sigma-Aldrich
# T2 sequence (P00591 1-450): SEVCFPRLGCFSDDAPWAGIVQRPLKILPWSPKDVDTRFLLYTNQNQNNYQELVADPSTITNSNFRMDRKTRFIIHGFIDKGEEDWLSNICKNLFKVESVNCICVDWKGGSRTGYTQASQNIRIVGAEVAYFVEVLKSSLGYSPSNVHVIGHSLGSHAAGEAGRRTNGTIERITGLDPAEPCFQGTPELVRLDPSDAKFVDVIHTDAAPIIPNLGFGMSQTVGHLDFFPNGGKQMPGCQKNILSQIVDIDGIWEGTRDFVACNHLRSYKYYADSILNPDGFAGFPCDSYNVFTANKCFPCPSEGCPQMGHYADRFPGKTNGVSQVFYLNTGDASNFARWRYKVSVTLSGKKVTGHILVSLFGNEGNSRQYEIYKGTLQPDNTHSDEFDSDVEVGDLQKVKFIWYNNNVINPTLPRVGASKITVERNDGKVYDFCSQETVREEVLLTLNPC
# Description: as §1
# PL (Sigma-Aldrich), in the presence of test substances in different use concentrations has methylumbelliferyl oleate (MUF oleate) added as a substrate. Fluorescent methylumelliferon (MUF), is produced by hydrolysis of the MUF oleate by PL and is quantified. The inhibition of the hydrolysis of the MUF oleate is a measure of the inhibition of activity of the PL.
# [formula] wherein MUF test substance=MUF concentration of the wells with test substance and with PL MUF control=MUF concentration of the wells without test substance, but with PL MUF control without PL=MUF concentration of the wells without test substance and without PL
# The IC50 is calculated from the inhibition of the PL [%] in a series of dilutions of tested samples. This is the concentration, at which the activity of the PL is 50% inhibited.
# [3] = tested on: ex vivo pig skin model including subcutis fat layer; experiment: Lipolysis assay, ex vivo pig skin model, free glycerol release; assay type: cell-based; settings: conc. 0.1% in cosmetic test preparation, topical on ex vivo pig skin, 24 hours, versus placebo
# Description: Full thickness pig skin patches (pig skin model including subcutis fat layer as described in EP 1 939 279) are excised from the dorsal part of young pig slaughtered for meat. The ex vivo pig skin models have a size of 7×3 mm (diameter×height). They are placed on a titanium grid dipped in culture medium. On top of the skin samples formulations are applied. In parallel to a cosmetic test preparation containing one or more compounds of formula (I) a placebo preparation without any compound of formula (I) is applied as reference (blank).
# After 24 hours of incubation, the quantification of free glycerol in the medium surrounding the pig skin models was performed. The glycerol is released by the cells after hydrolysis of triglycerides in the cells of the adipose tissue and is a measure of the lipolysis of the pig skin models. The quantification of the free glycerol is carried out based on an enzymatic method with a free glycerol reagent.
# Cosmetic Test Preparation:
# Phases A and B are heated to 70° C. separately. Pemulen TR1 as well as Ultrez-21 are dispersed in phase B when heated to 70° C. Phase B/C is added to phase A by mixing with an Ultra Turrax, followed by emulsifying. Phase D is slowly added to phase A/B/C using a paddle mixer and a pH 5.5-6 is adjusted. The formulation is cooled down while mixing with a paddle mixer. Phase E is prepared by dissolving one or more compounds of formula (I) in Hydrolite-5. Subsequently, phase E is added to the mixture of phase A-D.
# as §2
# [formula] wherein A test substance=absorption of the wells with medium of ex vivo skin models, on which the formulation containing the test substance was applied A placebo=absorption of the wells with medium of ex vivo skin models, on which the placebo without test substance was applied
pIC50 (lipoprotein lipase (LPL)),pIC50 (pancreatic lipase (PL)),SMILES,pIC50 (3T3 cells),pEC50 (3T3-L1 cells [1]),pIC50 (3T3-L1 cells [2]),Stimulation of lipolysis [3] [%]
3.14,3.46,"CCC(C)NC(=O)OC1CC(C)CC(C)(C)C1 (centres unmarked) [BIO1844, sec-Butyl-carbamic acid 3,3,5-trimethyl-cyclohexyl ester]",3.32,3.68,4.05,
2.99,3.05,"CCCCNC(=O)OC1CC(C)CC(C)(C)C1 (centres unmarked) [BIO1616, Butyl-carbamic acid 3,3,5-trimethyl-cyclohexyl ester]",3.66,3.35,3.92,
,,"CCc1ccc(NC(=O)OC2CC(C)CC(C)C2)cc1 (centres unmarked) [BIO1823, (4-Ethyl-phenyl)-carbamic acid 3,5-dimethyl-cyclohexyl ester]",2.86,3.34,4.21,28
